± gives the standard deviation of the averaged measurements.
How the values were obtained:
Test in all cases: level (log10 ratio to DMSO vehicle control); higher = higher biomarker level / cell amount than vehicle control
[1] = compound: O=S(=O)(O)C(F)(F)C(F)(F)OC(F)(F)C(F)(F)F [Perfluoro(2-ethoxyethane)sulfonic acid] (in DMSO)
Protocol: (§1)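 BioMAP Diversity Plus panel of 12 human primary cell co-culture systems (3C, 4H, LPS, SAg, BT, BF4T, BE3C, CASM3C, HDF3CGF, KF3CT, MyoF, Mphg). Compounds were added 1 h before stimulation and left for 24 h (MyoF 48 h; BT 72 h for soluble read-outs or 6 d for IgG). Biomarkers were read by ELISA, cytotoxicity by SRB, PBMC viability and proliferation by Alamar Blue. Each well value was divided by the mean of 8 DMSO control wells on the same plate and log10 transformed; duplicate blinded samples were tested at 4 concentrations.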

[2] = compound: O=C(O)C(F)(F)OC(F)(F)C(F)(F)OC(F)(F)C(F)(F)OC(F)(F)C(F)(F)C(F)(F)C(F)(F)F [Perfluoro-3,6,9-trioxatridecanoic acid] (in DMSO); settings: 6700 nM
Protocol: as §1

[3] = compound: O=C(O)C(F)(F)C(F)(F)C(F)(F)OC(F)(F)F [Perfluoro(4-methoxybutanoic) acid] (in DMSO)
Protocol: as §1

[4] = compound: O=C(O)C(F)(OC(F)(F)C(F)(OC(F)(F)C(F)(OC(F)(F)C(F)(F)C(F)(F)F)C(F)(F)F)C(F)(F)F)C(F)(F)F [Perfluoro-(2,5,8-trimethyl-3,6,9-trioxadodecanoic)acid] (in DMSO)
Protocol: as §1

[5] = compound: O=C(O)C=C(C(F)(F)F)C(F)(F)F [3,3-Bis(trifluoromethyl)-2-propenoic acid] (in DMSO)
Protocol: as §1

[6] = compound: OCCC(F)(F)C(F)(F)C(F)(F)C(F)(F)F [4:2 Fluorotelomer alcohol] (in DMSO)
Protocol: as §1

[7] = compound: O=C(O)C(F)(OC(F)(F)C(F)(F)C(F)(F)F)C(F)(F)F [Ammonium perfluoro-2-methyl-3-oxahexanoate] (in Water)
Protocol: as §1

Test System	level (log10) ([1]; 6700 nM)	level (log10) ([1]; 20000 nM)	level (log10) ([1]; 60000 nM)	level (log10) [2]	level (log10) ([3]; 6700 nM)	level (log10) ([3]; 20000 nM)	level (log10) ([3]; 60000 nM)	level (log10) ([4]; 1100 nM)	level (log10) ([4]; 3300 nM)	level (log10) ([4]; 10000 nM)	level (log10) ([5]; 6700 nM)	level (log10) ([5]; 20000 nM)	level (log10) ([5]; 60000 nM)	level (log10) ([6]; 6700 nM)	level (log10) ([6]; 20000 nM)	level (log10) ([6]; 60000 nM)	level (log10) ([7]; 6700 nM)	level (log10) ([7]; 20000 nM)	level (log10) ([7]; 60000 nM)
LPS:CCL2/MCP-1	0.012 ± 0.0057	0.021 ± 0.0071	0.032 ± 0.035	-0.0325 ± 0.023	0.004 ± 0.013	-0.001 ± 0.024	0.025 ± 0.058	-0.0105 ± 0.022	-0.014 ± 0.0042	-0.002 ± 0.0099	0.0015 ± 0.00071	-0.0145 ± 0.0035	-0.02 ± 0.03	-0.0125 ± 0.021	-0.0095 ± 0.00071	0.019 ± 0.0057	0.0325 ± 0.033	-0.017 ± 0.023	-0.001 ± 0.0014
LPS:CD40	0.0515 ± 0.016	0.022 ± 0.0028	0.047 ± 0.016	-0.015 ± 0.024	-0.0385 ± 0.06	0 ± 0.055	-0.0465 ± 0.094	0.04 ± 0.1	0.0475 ± 0.015	0.007 ± 0.055	-0.055 ± 0.024	-0.061 ± 0.047	-0.184	-0.008 ± 0.016	-0.041 ± 0.014	-0.032	-0.014 ± 0.018	-0.0145 ± 0.016	-0.045 ± 0.03
LPS:CD62E/E-Selectin	0.0105 ± 0.022	0.0215 ± 0.019	0.0275 ± 0.0078	-0.024 ± 0.0057	-0.009 ± 0.0099	-0.007 ± 0.014	-0.002	-0.002 ± 0.0099	-0.0115 ± 0.005	-0.0135 ± 0.0035	-0.013 ± 0.021	-0.025 ± 0.0071	-0.0345 ± 0.005	0.002 ± 0.023	-0.0195 ± 0.012	-0.0045 ± 0.03	-0.0115 ± 0.0078	-0.005 ± 0.016	-0.004 ± 0.0085
LPS:CD69	0.0305 ± 0.04	-0.007 ± 0.027	-0.023 ± 0.068	0.013 ± 0.0014	0.02 ± 0.11	0.0405 ± 0.12	0.0255 ± 0.086	-0.021 ± 0.0014	-0.0255 ± 0.0078	-0.007	-0.072 ± 0.02	-0.0565 ± 0.057	-0.028 ± 0.09	-0.0295 ± 0.025	-0.0135 ± 0.015	-0.0105 ± 0.025	0.03 ± 0.0028	0 ± 0.028	-0.0315 ± 0.04
LPS:CD106/VCAM-1	0.013 ± 0.034	-0.007 ± 0.033	0.0165 ± 0.049	0.001 ± 0.016	-0.019 ± 0.02	-0.005 ± 0.025	-0.0155 ± 0.019	-0.009 ± 0.0099	-0.0005 ± 0.0021	-0.006 ± 0.0057	-0.106 ± 0.021	-0.141 ± 0.018	-0.244 ± 0.069	-0.017 ± 0.014	-0.0145 ± 0.005	0.0075 ± 0.00071	-0.0285 ± 0.016	-0.016 ± 0.0071	-0.0195 ± 0.011
LPS:CD141/Thrombomodulin	0.067 ± 0.0085	0.057 ± 0.055	0.051 ± 0.072	-0.015 ± 0.0028	-0.028 ± 0.023	-0.0285 ± 0.052	-0.0195 ± 0.053	-0.019 ± 0.0028	-0.002 ± 0.0042	0.0005 ± 0.0021	-0.0835 ± 0.093	-0.091 ± 0.14	-0.026 ± 0.12	-0.037 ± 0.034	0.0025 ± 0.03	-0.005 ± 0.02	-0.013 ± 0.031	-0.0025 ± 0.0092	-0.036 ± 0.028
LPS:CD142/Tissue Factor	0.0685 ± 0.042	0.1 ± 0.057	0.0485 ± 0.093	-0.091 ± 0.021	-0.0085 ± 0.066	-0.012 ± 0.054	0.016 ± 0.051	0.0115 ± 0.013	-0.011 ± 0.021	0.022 ± 0.0085	0.0165 ± 0.064	-0.023 ± 0.12	-0.036 ± 0.12	-0.0015 ± 0.0064	-0.025 ± 0.047	0.0235 ± 0.016	0.0885 ± 0.064	0.0845 ± 0.028	0.075 ± 0.045
LPS:CXCL8/IL-8	0.0585 ± 0.025	0.108 ± 0.07	0.21 ± 0.04	-0.0465 ± 0.061	-0.0075 ± 0.05	0.0075 ± 0.049	0.0545 ± 0.005	0.0045 ± 0.016	-0.0045 ± 0.0064	0.0095 ± 0.0021	-0.052 ± 0.0099	-0.047 ± 0.037	-0.007 ± 0.069	-0.0255 ± 0.015	-0.0005 ± 0.0078	-0.005 ± 0.024	0.023 ± 0.031	0.0895 ± 0.016	0.131 ± 0.017
LPS:IL-1alpha	0.026 ± 0.025	0.044 ± 0.016	0.011 ± 0.027	-0.038 ± 0.013	-0.023 ± 0.013	-0.0195 ± 0.04	0.0005 ± 0.09	0.0135 ± 0.00071	-0.0305 ± 0.023	-0.005 ± 0.059	-0.0355 ± 0.015	-0.0495 ± 0.023	-0.095 ± 0.02	-0.039 ± 0.055	-0.0135 ± 0.0021	-0.0205 ± 0.0078	0.0325 ± 0.04	0.0475 ± 0.015	0.019 ± 0.062
LPS:M-CSF	-0.0095 ± 0.059	0.026 ± 0.028	-0.0085 ± 0.032	0.009 ± 0.018	-0.014 ± 0.014	-0.024	-0.008 ± 0.011	-0.005 ± 0.02	0.0145 ± 0.035	0.022 ± 0.023	-0.071 ± 0.082	-0.155 ± 0.13	-0.203 ± 0.13	-0.041 ± 0.027	0.005 ± 0.057	0.029 ± 0.044	-0.02 ± 0.024	-0.009 ± 0.016	-0.0045 ± 0.005
LPS:SRB	-0.0175 ± 0.0021	-0.012	-0.0145 ± 0.0064	0.008 ± 0.0071	-0.0085 ± 0.00071	-0.008 ± 0.0071	-0.0085 ± 0.0035	-0.008 ± 0.0042	-0.0125 ± 0.005	-0.001 ± 0.0085	-0.006 ± 0.0071	-0.024 ± 0.0085	-0.044 ± 0.0057	-0.012 ± 0.0057	-0.0145 ± 0.0092	-0.006 ± 0.0014	-0.009 ± 0.0028	-0.0075 ± 0.00071	-0.009 ± 0.0014
LPS:sPGE2	0 ± 0.028	-0.0545 ± 0.03	-0.001 ± 0.011	-0.0245 ± 0.013	-0.0115 ± 0.026	0.01 ± 0.047	-0.012 ± 0.017	0.0385 ± 0.032	0.011 ± 0.031	-0.012 ± 0.047	-0.0855 ± 0.016	-0.09 ± 0.021	-0.106 ± 0.016	-0.008 ± 0.025	-0.0115 ± 0.044	-0.0105 ± 0.025	0.093 ± 0.061	0.0575 ± 0.039	0.0765 ± 0.018
LPS:sTNF-alpha	0.011 ± 0.0057	-0.0005 ± 0.0035	-0.0005 ± 0.0092	-0.019 ± 0.024	-0.017 ± 0.0071	-0.0055 ± 0.005	-0.0115 ± 0.00071	0.0035 ± 0.022	-0.001 ± 0.016	0.001 ± 0.02	-0.0305 ± 0.042	0.0195 ± 0.023	-0.0025 ± 0.035	-0.008 ± 0.02	-0.01 ± 0.0071	0.0015 ± 0.0092	-0.068 ± 0.021	-0.0375 ± 0.043	-0.0225 ± 0.033
SAg:CCL2/MCP-1	0.0065 ± 0.0078	0.0055 ± 0.011	0.0145 ± 0.019	-0.0125 ± 0.018	-0.0325 ± 0.022	-0.0225 ± 0.012	0.017 ± 0.024	-0.0025 ± 0.018	-0.0055 ± 0.0035	0.0195 ± 0.025	-0.0145 ± 0.00071	-0.0535 ± 0.0078	-0.079 ± 0.042	-0.009 ± 0.0014	0.006 ± 0.025	0.031 ± 0.089	-0.0245 ± 0.04	0.004 ± 0.017	0.0305 ± 0.059
SAg:CD38	-0.0005 ± 0.03	-0.004 ± 0.023	-0.0125 ± 0.016	0.0175 ± 0.026	-0.0375 ± 0.016	-0.0225 ± 0.005	-0.0195 ± 0.0035	-0.0115 ± 0.0021	-0.011 ± 0.021	-0.005 ± 0.014	0.0025 ± 0.013	-0.019 ± 0.017	-0.073 ± 0.0028	0.0085 ± 0.11	0.0295 ± 0.1	0.0235 ± 0.077	0.003 ± 0.011	0.008 ± 0.0085	-0.0055 ± 0.019
